Source: patent publication US20130065885A1, “ORAL THERAPEUTIC COMPOUND DELIVERY SYSTEM” (IMAGINOT PTY LTD., priority 2004, published 2013)
Where a name gives a salt, the structure may show the parent alone. Read-outs that look alike come from different tables or passages of the source.

Assays:
physchem = conditions: water
[1] = cited from earlier work

In the case of COc1cccc(C2(O)CCCCC2CN(C)C)c1 (stereo not drawn) [tramadol hydrochloride], the solubility (physchem) is listed as 30 mg/mL, the solubility in water [1] is listed as “around 30 mg/mL” and the “Volume of water to dissolve dose” value is listed as 1.3 mL. For the same compound, the “volume needed for total dissolution of the dose” value was “around 1 mL”.
With CN1CCC[C@@H]1Cc1c[nH]c2ccc(CCS(=O)(=O)c3ccccc3)cc12 [Eletriptan hydrobromide] the “Volume of water to dissolve dose” value (dose as in the Dose (mg) column) was 4 mL.
In the case of CC(=O)Nc1ccc(O)cc1 [paracetamol], the “volume needed for total dissolution of the dose” value (weight for weight basis, dose in the paracetamol/tramadol hydrochloride tablet) was “around 27 mL”.
